Results reported in patent US20080214589A1, “Thrombin Inhibiting 2,4-Dioxo-3,4-Dihydropyrimidine Derivatives” (ASTRAZENECA AB, priority 2005, published 2008).

Target: T1, Human a-thrombin (Homo sapiens, UniProt P00734)
T1 construct: Human a-thrombin, Sigma Chemical Co. or Hematologic Technologies; purchased Sigma Chemical Co. or Hematologic Technologies
Assay: Test B: thrombin inhibition with a chromogenic, robotic assay
Type: biochemical
Settings: chromogenic substrate S-2366, 40 minutes incubation at 37° C.
Description: Determination of Thrombin Inhibition with a Chromogenic, Robotic Assay
The thrombin inhibitor potency is measured with a chromogenic substrate method, in a Plato 3300 robotic microplate processor (Rosys AG, CH-8634 Hombrechtikon, Switzerland), using 96-well, half volume microtitre plates (Costar, Cambridge, Mass., USA; Cat No 3690). Stock solutions of test substance in DMSO (72 μL), 0.1-1 mmol/L, are diluted serially 1:3 (24+48 μL) with DMSO to obtain ten different concentrations, which are analysed as samples in the assay. 2 μL of test sample is diluted with 124 μL assay buffer, 12 μL of chromogenic substrate solution (S-2366, Chromogenix, Mölndal, Sweden) in assay buffer and finally 12 μL of a-thrombin solution (Human a-thrombin, Sigma Chemical Co. or Hematologic Technologies) in assay buffer, are added, and the samples mixed. The final assay concentrations are: test substance 0.00068-133 μmol/L, S-2366 0.30 mmol/L, a-thrombin 0.020 NIHU/mL. The linear absorbance increment during 40 minutes incubation at 37° C. is used for calculation of percentage inhibition for the test samples, as compared to blanks without inhibitor. The IC50-robotic value, corresponding to the inhibitor concentration which causes 50% inhibition of the thrombin activity, is calculated from a log concentration vs. % inhibition curve.

SMILES	IC50 [µM]
Cc1cc(N)nc(C)c1CNC(=O)Cn1c(C)cc(=O)n(NCC(F)(F)c2ccccn2)c1=O [5(a), N-[(6-Amino-2,4-dimethylpyridin-3-yl)methyl]-2-[3-[(2,2-difluoro-2-pyridin-2-ylethyl)amino]-6-methyl-2,4-dioxo-3,4-dihydropyrimidin-1(2H)-yl]acetamide]	0.169
Cc1cc(=O)n(NCC(F)(F)c2ccccn2)c(=O)n1CC(=O)NCc1cc(Cl)ccc1CN [Example 2, N-[2-(Aminomethyl)-5-chlorobenzyl]-2-[3-[(2,2-difluoro-2-pyridin-2-ylethyl)-amino]-6-methyl-2,4-dioxo-3,4-dihydropyrimidin-1(2H)-yl]acetamide]	0.0327
